Data as given in PMC11313180 (International Journal of Molecular Sciences, 2024).

Columns and labels:
T47D [1] = experiment: Long-term (10 days) live/dead proliferation assay, calcein AM and Hoechst 33342, T47D; type: cell-based, human; conditions: 1 µM exemestane, 1 mM (R)-α-lipoic acid
Protocol: (§1) Cells were seeded on day one in 96-well plates. […] Then, cells were stained with calcein AM (Millipore Corporation, Billerica, MA, USA) and Hoechst 33342 (Tocris Bioscience, Bristol, UK) for 30 min and fluorescence images monitored by Leica DMi8 Thunder Imager (Leica Microsystems CMS GmbH, Wetzlar, Germany). Five images per well were monitored randomly. Calcein AM- and Hoechst 33342-stained area of the images (i.e., live proliferating cells) were evaluated.

HDAC6 = molecular target: T1, HDAC6 (Homo sapiens, UniProt Q9UBN7); experiment: Enzyme HDAC inhibition assay, HDAC6; conditions: read-out: IC50 HDAC 6; IC50 ± SEM; three experiments in duplicates
T1 sequence (Q9UBN7 1-1215): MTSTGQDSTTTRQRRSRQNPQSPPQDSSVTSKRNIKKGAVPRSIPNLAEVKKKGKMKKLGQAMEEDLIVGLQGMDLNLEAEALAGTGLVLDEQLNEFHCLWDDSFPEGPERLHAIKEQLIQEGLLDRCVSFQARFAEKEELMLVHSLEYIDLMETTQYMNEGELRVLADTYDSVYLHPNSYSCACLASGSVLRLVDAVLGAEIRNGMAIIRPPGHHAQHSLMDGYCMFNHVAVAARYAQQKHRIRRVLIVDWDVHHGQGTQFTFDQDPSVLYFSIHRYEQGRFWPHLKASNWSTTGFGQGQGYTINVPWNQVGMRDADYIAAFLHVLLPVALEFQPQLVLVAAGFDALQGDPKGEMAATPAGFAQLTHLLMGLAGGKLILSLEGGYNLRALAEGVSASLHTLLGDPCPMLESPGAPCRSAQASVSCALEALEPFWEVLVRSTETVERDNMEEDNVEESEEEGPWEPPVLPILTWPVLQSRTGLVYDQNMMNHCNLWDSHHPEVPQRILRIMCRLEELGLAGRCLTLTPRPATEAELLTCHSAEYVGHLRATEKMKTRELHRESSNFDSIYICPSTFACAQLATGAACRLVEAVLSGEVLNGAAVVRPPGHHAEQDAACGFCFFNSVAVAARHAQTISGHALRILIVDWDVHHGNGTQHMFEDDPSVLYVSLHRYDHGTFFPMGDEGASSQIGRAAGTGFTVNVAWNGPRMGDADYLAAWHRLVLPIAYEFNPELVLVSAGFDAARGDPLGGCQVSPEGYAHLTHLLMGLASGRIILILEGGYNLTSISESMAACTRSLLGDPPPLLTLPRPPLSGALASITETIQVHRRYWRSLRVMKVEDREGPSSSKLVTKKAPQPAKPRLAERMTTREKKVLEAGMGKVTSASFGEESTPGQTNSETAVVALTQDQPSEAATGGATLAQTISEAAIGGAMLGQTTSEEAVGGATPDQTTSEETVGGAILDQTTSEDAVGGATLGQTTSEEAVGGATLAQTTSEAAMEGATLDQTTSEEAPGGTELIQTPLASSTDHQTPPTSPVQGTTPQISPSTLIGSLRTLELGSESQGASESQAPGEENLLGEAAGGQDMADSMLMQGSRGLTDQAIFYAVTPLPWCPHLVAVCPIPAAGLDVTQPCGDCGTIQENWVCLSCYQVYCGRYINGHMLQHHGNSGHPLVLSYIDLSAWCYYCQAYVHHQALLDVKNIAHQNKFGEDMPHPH
Excerpt: All human recombinant enzymes were purchased from Reaction Biology Corp. (Malvern, PA, USA).

MCF-7 [2] = experiment: Immunoblotting, MCF-7; type: cell-based, human; conditions: 48 h
Protocol: (§2) A quantity of 20 or 40 µg of total protein as well as, from PageRuler Prestained Protein Ladder, 10–180 kDA (Thermo Scientific, Wesel, Germany), were resolved by SDS-Page (12% polyacrylamide gel) and transferred to polyvinylidene fluoride membrane (Millipore Corporation, Billerica, MA, USA). Blots were incubated with primary antibodies against acetylated a -tubulin (Cat. No. sc-23950), a -tubulin (Cat. No. sc-8035) (Santa Cruz Biotechnology, Heidelberg, Germany), acetyl histone h3 (Cat. No. 39140) and histone H3 (Cat. No. NB100-1669), ß-actine (Cat. No. sc-47778), p21 (AF1047), c-myk (Cat. No. MAB3696), APAF1 (Cat. No. MAB868), BIM (Cat. No. NBP1-76936), FOXO1 (Cat. No. C29H4), BCL-2 (Cat. No. AF810), and survivin (Cat. No. AF886). After another one-hour incubation with the appropriate HRP-conjugated secondary antibody, proteins were visualized by Intas Imager (Intas, Göttingen, Germany) using luminol reagent (Santa Cruz Biotechnology, Heidelberg, Germany).

MCF-7 [3] = experiment: Mitochondrial potential assay (TMRE), MCF-7; type: cell-based, human; conditions: 1 mM; 2 h, 6 h, 24 h, 48 h
Protocol: The analysis of mitochondrial potential was carried out as previously described with minor modifications concerning fluorescence measurement. […] After an incubation time of 2 h, 6 h, 24 h, and 48 h, medium was removed, and cells were washed with PBS and then stained for 30 min at 37 °C with 50 µL staining reagent containing 500 nM tetramethyl rhodamine ethylester as perchlorate (TMRE, BIOTREND chemicals GmbH, Cologne) and Hoechst 33342 (5 µg/mL). A quantity of 20 µM CCCP (carbonyl cyanide-m-chlorophenylhydrazone, Sigma-Aldrich, München, Germany) served as control for mitochondrial potential breakdown. Fluorescence was measured by Leica DMi8 Thunder Imager (Leica Microsystems CMS GmbH, Wetzlar, Germany).

MCF-7 [4] = experiment: Long-term (10 days) live/dead proliferation assay, calcein AM and Hoechst 33342, MCF-7; type: cell-based, human; conditions: 1 µM exemestane, 1 mM (R)-α-lipoic acid
Protocol: as §1

T47D [5] = experiment: Immunoblotting, T47D; type: cell-based, human; conditions: 48 h
Protocol: as §2

HDAC = conditions: up to 500 µM (max. concentration tested); ref [21]; cited from earlier work
[6] = test system: caspase 3/7 in MCF-7 cells; experiment: Caspase 3/7 activation assay, MCF-7; type: cell-based, human; conditions: 24 h; 1 µM exemestane, 0.5 mM or 1 mM (R)-α-lipoic acid
Protocol: To analyze the compound-induced activation of capases 3 and 7, the CellEvent caspase 3/7 green detection reagent (Thermo Scientific, Wesel, Germany) was used according to the manufacturer’s instructions. […] After 24 h incubation, medium was removed, and cells were stained with 50 µL of CellEvent caspase 3/7 green detection reagent (2 µM in PBS supplemented with 5% heat-inactivated FBS). Cells were incubated for 30 min at 37 °C in a humidified incubator before imaging by using the Thermo Fisher ArrayScan XTI high content screening (HCS) system with a 10× magnification (Thermo Scientific). Hoechst 33342 was added for nuclei staining.

[7] = 1 mM (R)-α-lipoic acid, 1 µM exemestane

Row | SMILES | proliferation and doubling time over 10 days, T47D (T47D [1]) | IC50 (HDAC6) [µM] | expression of APAF-1 and BIM, MCF-7 (MCF-7 [2]) | expression of FOXO1, MCF-7 (MCF-7 [2]) | acetylation of histone H3 and alpha-tubulin (western blot), MCF-7 (MCF-7 [2]; [7]) | expression of p21, MCF-7 (MCF-7 [2]; [7]) | expression of survivin and c-myk, MCF-7 (MCF-7 [2]; [7]) | mitochondrial potential and structure (TMRE) (MCF-7 [3]) | proliferation and doubling time over 10 days, MCF-7 (MCF-7 [4]) | expression of APAF-1 and BIM, T47D (T47D [5]) | expression of FOXO1, T47D (T47D [5]) | acetylation of histone H3 and alpha-tubulin (western blot), T47D (T47D [5]; [7]) | expression of p21, T47D (T47D [5]; [7]) | expression of survivin and c-myk, T47D (T47D [5]; [7]) | HDAC inhibitory activity (HDAC) | caspase 3/7 activation, MCF-7 [6]
1 | O=C(O)CCCC[C@@H]1CCSS1 [(R)-α-lipoic acid] | reduced proliferation and increased doubling time strongly | 14.2 ± 2.62 | upregulated | strongly upregulated | increased acetylation of histone and of alpha-tubulin | moderately upregulated | strongly downregulated | mitochondrial fusion up to 24 h followed by mitochondrial fission and inhibition of proliferation | strong reduction in proliferation and thus increase in doubling time | upregulated | strongly upregulated | increased acetylation of histone and of alpha-tubulin | moderately upregulated | strongly downregulated |  | 
2 | O=C(O)CCCC[C@H]1CCSS1 [(S)-α-lipoic acid] |  | 21.3 ± 1.23 |  |  |  |  |  |  |  |  |  |  |  |  | no HDAC inhibitory activity | slightly lower than (R)-α-lipoic acid
